From patent US20150315241A1, “Antibiotic Peptides” (priority 2007, published 2015)
Converted amounts (≈) assume the structure as drawn. Where two headings read alike, the source gives them in different places. Where a SMILES comes first, the peptide text is derived from it. Where no end group is shown, it is not given here. [ ]: non-standard residue; d: D form. Hyp = O=C(O)[C@@H]1C[C@@H](O)CN1; Orn = NCCC[C@H](N)C(=O)O

Tests used:
in vitro = in vitro ADME, mouse; details: 25% aqueous mouse serum, 37° C.; read-out: Half-life time
Method in brief: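 Peptide or peptidomimetic (0.5 mg/mL aqueous stock) incubated in 25% pooled mouse serum at 37 °C, sampled at 0–6 h, in duplicate. Proteins precipitated with 15% TCA; supernatants neutralized and analyzed by RP-HPLC with 0.1% TFA. Degradation products identified by MALDI-TOF/TOF-MS.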

E. coli 45849 = assay: Growth inhibition assay (MIC); type: cell-based, Escherichia coli
Method in brief: (§1)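 Peptides were serially diluted two-fold in 1% TSB to give final concentrations from 125 μg/mL to 60 ng/mL. Bacteria grown overnight in nutrient broth at 37° C. were added at 5×10^6 CFU/mL. Plates were incubated 20 hrs at 37° C. and absorbance at 595 nm recorded.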

S. typhi S5 = type: cell-based, Salmonella typhi; details: S5, 20 h
Method in brief: as §1

E. coli D31 = type: cell-based, Escherichia coli; details: D31, 20 h
Method in brief: as §1

K. Pneumonia 123132 = assay: Growth inhibition assay (MIC); type: cell-based, Klebsiella pneumoniae
Method in brief: as §1

[1] = system: K. Pneumonia K6, ATCC 700603; assay: Growth inhibition assay (MIC); type: cell-based, Klebsiella pneumoniae; details: multidrug resistant strain; 1% TSB, 37° C., 20 hrs
Method in brief: as §1

[2] = system: S. enterica subsp. Enterica serovar. typhi G10215 ATCC 700408; type: cell-based, Salmonella enterica; details: ATCC 700408, 20 h
Method in brief: as §1

[3] = system: R. radiobatter ATCC 15955; assay: Growth inhibition assay (MIC); type: cell-based, Rhizobium radiobacter
Method in brief: as §1

E. coli BL 21 AI = assay: Growth inhibition assay (MIC); type: cell-based, Escherichia coli; details: 1% TSB, 37° C., 20 hrs
Method in brief: (§2)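 Peptides were serially diluted two-fold in 1% TSB, giving final concentrations from 125 μg/mL down to 60 ng/mL, and mixed with overnight bacterial culture adjusted to 5×10^6 CFU/mL in 1% TSB. After 20 hrs at 37 °C, growth was read as absorbance at 595 nm, in triplicate, with sterile water as negative control.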

E. coli DC 2 = assay: Growth inhibition assay (MIC); type: cell-based, Escherichia coli; details: 1% TSB, 37° C., 20 hrs
Method in brief: as §2

M. luteus ATCC 10240 = type: cell-based, Micrococcus luteus
Method in brief: as §2

E. coli 1103 = type: cell-based, Escherichia coli
Method in brief: as §2

K. pneumonia 681 = type: cell-based, Klebsiella pneumoniae
Method in brief: as §2

Mycobacterium vaccae = type: cell-based
Description: The minimal inhibition concentrations (MIC) of the apidaecin-derived peptides and peptide-derivatives were determined by a growth inhibition assay using a serial peptide dilution in sterilized round-bottom 96-well plates (polystyrene, U-bottom, Greiner Bio-One GmbH) with a final volume of 100 μL per well. The bacteria, e.g., E. coli BL21 A1, were grown in nutrient broth (NB, Carl Roth GmbH+Co. KG, Karlsruhe, Germany) at 37° C. over night. To each well of the 96-well plate, 50 μL of the overnight culture adjusted to 5×10^6 CFU/mL in 1% TSB were added. Lyophilized peptides and peptidomimetics were dissolved in 1% TSB (tryptic soy broth) or water to give a final concentration of 250 μg/mL. Fifty μL of the peptide or peptidomimetics solution were added to the first well of a row on the plate and mixed. Fifty μL of the first well containing the peptide solution were transferred to the second well, mixed and again 50 μL transferred to the next well and so on. Thereby, a two-fold dilution series was obtained starting at 250 μg/mL in the first well down to 120 ng/mL in the 12th well of a row giving a final peptide or peptidomimetics concentration from 125 μg/mL (well 1) to 60 ng/mL (well 12). Plates were incubated at 37° C. for 20 hrs. The absorbance was measured at 595 nm using a TECAN micro plate spectrophotometer (Tecan, Germany). All peptides and peptidomimetics were measured in triplicates. Sterilized water was used as a negative control.
The bacteria strains were tested: • Eschericha coli 1103, 10233, BL 21 AI, DC 2, • Klebsiella pneumoniae 681, • Micrococcus luteus ATCC 10240, • Mycobacterium vaccae • Bactillus subtillis 347.

B. subtilis 347 = type: cell-based, Bactillus subtillis
Method in brief: as §2

E. coli 10233 = type: cell-based, Escherichia coli
Method in brief: as §2

[4] = multidrug resistant strain, 1% TSB, 37° C., 20 hrs

| Molecule | half-life at 0.061 mg/mL (in vitro) [min] | MIC E. coli 45849 (E. coli 45849; [4]) [mg/L] | MIC S. typhi S5 (S. typhi S5) [mg/L] | MIC E. coli D31 (E. coli D31) [mg/L] | MIC K. Pneumonia 123132 (K. Pneumonia 123132; [4]) [mg/L] | MIC K. Pneumonia K6, ATCC 700603 [1] [mg/L] | MIC S. enterica subsp. Enterica serovar. typhi G10215 ATCC 700408 [2] [mg/L] | MIC R. radiobatter ATCC 15955 [3, 4] [mg/L] | MIC E. coli BL 21 AI (E. coli BL 21 AI) [mg/L] | MIC E. coli DC 2 (E. coli DC 2) [mg/L] | MIC M. luteus ATCC 10240 (M. luteus ATCC 10240; ATCC 10240, 20 h) [mg/L] | MIC E. coli 1103 (E. coli 1103; 1103, 20 h) [mg/L] | MIC K. pneumonia 681 (K. pneumonia 681; 20 h) [mg/L] | MIC Mycobacterium vaccae (Mycobacterium vaccae; 20 h) [mg/L] | MIC B. subtilis 347 (B. subtilis 347; 347, 20 h) [mg/L] | MIC E. coli 10233 (E. coli 10233; 10233, 20 h) [mg/L] | further results |
| --- | --- | --- | --- | --- | --- | --- | --- | --- | --- | --- | --- | --- | --- | --- | --- | --- | --- |
| CC[C@H](C)[C@H](NC(=O)[C@H](Cc1ccc(O)cc1)NC(=O)[C@@H](NC(=O)[C@@H]1CCCN1C(=O)[C@H](CCCNC(=N)N)NC(=O)[C@H](CC(N)=O)NC(=O)[C@H](CC(N)=O)NC(=O)[C@H](CCCN)NC(C)=O)C(C)C)C(=O)N1CCC[C@H]1C(=O)N[C@@H](CCC(N)=O)C(=O)N1CCC[C@H]1C(=O)N[C@@H](CCCNC(=N)N)C(=O)N1CCC[C@H]1C(=O)N1CCC[C@H]1C(=O)N[C@@H](Cc1c[nH]cn1)C(=O)N1CCC[C@H]1C(=O)N[C@@H](CCCNC(=N)N)C(=O)N[C@@H](CC(C)C)C(N)=O [compound 7] (Ac-[Orn]NNRPVYIPQPRPPHPRL-NH2) | 15 | 1 (≈ 0.453 µM) | 2 (≈ 0.906 µM) | 4 to 8 | 16 (≈ 7.25 µM) | 64 (≈ 29 µM) | 0.5 to 1 | <0.16 | 0.49 (≈ 0.222 µM) | 3.9 (≈ 1.77 µM) | 3.91 (≈ 1.77 µM) | 1.95 (≈ 0.884 µM) | 1.95 (≈ 0.884 µM) | 125 (≈ 56.6 µM) | >125 |  |  |
| CC[C@H](C)[C@H](NC(=O)[C@H](Cc1ccc(O)cc1)NC(=O)[C@@H](NC(=O)[C@@H]1CCCN1C(=O)[C@H](CCCNC(=N)N)NC(=O)[C@H](CC(N)=O)NC(=O)[C@H](CC(N)=O)NC(=O)[C@@H](N)CCCN)C(C)C)C(=O)N1CCC[C@H]1C(=O)N[C@@H](CCC(N)=O)C(=O)N1CCC[C@H]1C(=O)N[C@@H](CCCNC(=N)N)C(=O)N1CCC[C@H]1C(=O)N1CCC[C@H]1C(=O)N[C@@H](Cc1c[nH]cn1)C(=O)N1CCC[C@H]1C(=O)N[C@@H](CCCNC(=N)N)C(=O)N[C@@H](CC(C)C)C(N)=O [compound 8] (H-[Orn]NNRPVYIPQPRPPHPRL-NH2) | 30 | <0.25 | <0.5 | 2 (≈ 0.924 µM) | 1 (≈ 0.462 µM) | 16 (≈ 7.39 µM) | <0.25 | <0.16 | 0.24 (≈ 0.111 µM) | 0.98 (≈ 0.453 µM) | 7.84 (≈ 3.62 µM) |  | 1.95 (≈ 0.901 µM) | 125 (≈ 57.7 µM) | >125 |  |  |
| CC[C@H](C)[C@H](NC(=O)[C@H](Cc1ccc(O)cc1)NC(=O)[C@@H](NC(=O)[C@@H]1CCCN1C(=O)[C@H](CCCNC(=N)N)NC(=O)[C@H](CC(N)=O)NC(=O)[C@H](CC(N)=O)NC(=O)CN)C(C)C)C(=O)N1CCC[C@H]1C(=O)N[C@@H](CCCN)C(=O)N1C[C@H](O)C[C@H]1C(=O)N[C@@H](CCCNC(=N)N)C(=O)N1CCC[C@H]1C(=O)N1CCC[C@H]1C(=O)N[C@@H](Cc1c[nH]cn1)C(=O)N1CCC[C@H]1C(=O)N[C@@H](CCCNC(=N)N)C(=O)N[C@@H](CC(C)C)C(N)=O [compound 11] (H-GNNRPVYIP[Orn][Hyp]RPPHPRL-NH2) |  |  | <0.5 | 8 (≈ 3.79 µM) |  | 8 (≈ 3.79 µM) | <0.25 |  | 0.49 (≈ 0.232 µM) | 0.98 (≈ 0.465 µM) |  |  |  |  |  |  | MIC E. coli 45849 (E. coli 45849; 45849, 20 h): 1 mg/L (≈ 0.474 µM); MIC K. Pneumonia 123132 (K. Pneumonia 123132; 20 h): 8 mg/L (≈ 3.79 µM); MIC R. radiobatter ATCC 15955 ([3]; ATCC 15955, 20 h): <0.16 mg/L; MIC M. luteus ATCC 10240 (M. luteus ATCC 10240; 1% TSB, 37° C., 20 hrs): 1.95 mg/L (≈ 0.924 µM); MIC E. coli 10233 (E. coli 10233; 1% TSB, 37° C., 20 hrs): 3.91 mg/L (≈ 1.85 µM); MIC E. coli 1103 (E. coli 1103; 1% TSB, 37° C., 20 hrs): 3.9 mg/L (≈ 1.85 µM); MIC K. pneumonia 681 (K. pneumonia 681; 1% TSB, 37° C., 20 hrs): 1.95 mg/L (≈ 0.924 µM); MIC Mycobacterium vaccae (Mycobacterium vaccae; 1% TSB, 37° C., 20 hrs): 125 mg/L (≈ 59.3 µM); MIC B. subtilis 347 (B. subtilis 347; 1% TSB, 37° C., 20 hrs): 125 mg/L (≈ 59.3 µM) |
| CC[C@H](C)[C@H](NC(=O)[C@H](Cc1ccc(O)cc1)NC(=O)[C@@H](NC(=O)[C@@H]1CCCN1C(=O)[C@H](CCCNC(=N)N)NC(=O)[C@H](CC(N)=O)NC(=O)[C@H](CC(N)=O)NC(=O)CN)C(C)C)C(=O)N1CCC[C@H]1C(=O)N[C@@H](CCCNC(=N)N)C(=O)N1C[C@H](O)C[C@H]1C(=O)N[C@@H](CCCNC(=N)N)C(=O)N1CCC[C@H]1C(=O)N1CCC[C@H]1C(=O)N[C@@H](Cc1c[nH]cn1)C(=O)N1CCC[C@H]1C(=O)N[C@@H](CCCNC(=N)N)C(=O)N[C@@H](CC(C)C)C(N)=O [compound 20] (H-GNNRPVYIPR[Hyp]RPPHPRL-NH2) |  | 1 (≈ 0.465 µM) | <0.5 | 32 (≈ 14.9 µM) | 4 (≈ 1.86 µM) | 8 (≈ 3.72 µM) |  | 0.33 (≈ 0.153 µM) | 0.49 (≈ 0.228 µM) | 1.95 to 3.91 | 1.95 (≈ 0.906 µM) | 3.9 (≈ 1.81 µM) | 3.9 (≈ 1.81 µM) | 125 (≈ 58.1 µM) | >125 |  |  |
| CC[C@H](C)[C@H](NC(=O)[C@H](Cc1ccc(O)cc1)NC(=O)[C@@H](NC(=O)[C@@H]1CCCN1C(=O)[C@H](CCCNC(=N)N)NC(=O)[C@H](CC(N)=O)NC(=O)[C@H](CC(N)=O)NC(=O)[C@@H](N)CCCN)C(C)C)C(=O)N1CCC[C@H]1C(=O)N[C@@H](CCCNC(=N)N)C(=O)N1CCC[C@H]1C(=O)N[C@@H](CCCNC(=N)N)C(=O)N1CCC[C@H]1C(=O)N1CCC[C@H]1C(=O)N[C@@H](Cc1c[nH]cn1)C(=O)N1CCC[C@H]1C(=O)N[C@@H](CCCNC(=N)N)C(=O)N[C@@H](CC(C)C)C(N)=O [compound 38] (H-[Orn]NNRPVYIPRPRPPHPRL-NH2) |  | 0.5 (≈ 0.228 µM) | <0.5 | 2 (≈ 0.912 µM) | 2 (≈ 0.912 µM) | 4 (≈ 1.82 µM) | 2 (≈ 0.912 µM) | 1.3 (≈ 0.593 µM) | 1.95 (≈ 0.889 µM) | 0.98 (≈ 0.447 µM) | 1.95 (≈ 0.889 µM) | 3.91 (≈ 1.78 µM) | 1.95 (≈ 0.889 µM) | 125 (≈ 57 µM) | 62.5 (≈ 28.5 µM) | 1.95 (≈ 0.889 µM) |  |
| GNNRPVYIPQPRPPHPRI [compound 1] |  |  |  | 64 |  | 64 | 2 |  | 0.98 | 3.91 | 31.25 | 1.95 | 15.62 | >125 | >125 | 1.95 |  |
